# Source: PMC8351955, “Targeting Mycobacterium tuberculosis response to environmental cues for the development of effective antitubercular drugs” (PLoS Biology, 2021)
# Where “and” joins values, the source holds several entries; their conditions need not be identical. Equal values may be shown once.
# Tested on: macrophage phagosomal proteolytic activity in BMDMs
# Test: Phagosomal maturation assay, DQ-BSA/AF594 beads (proteolysis readout)
# Type: cell-based, mouse
# Details: for DQ-BSA/AF594, Average: average of 4 replicates
# Protocol: Carboxyfluorescein (pH readout), DQ-BSA/Alexa Fluor 594 (AF594) (proteolysis readout), and BAC/AF594 (Cl^− readout) beads were generated essentially as previously described, except that 10,10′-Bis[3-carboxylpropyl]-9,9′-biacridinium dinitrate di-NHS ester (BAC-SE) was purchased from emp Biotech LLC. BMDMs were isolated from C57BL/6J mice (The Jackson Laboratory) and maintained as described above. A quantity of 2 × 10^5 macrophages/well were seeded into 96-well clear bottom black plates and utilized in assays 1 to 2 days post-seeding. […] Assay buffer consisted of PBS (pH 7.2), supplemented with 5% FBS, 5 mM dextrose, 1 mM CaCl2, 2.7 mM KCl, and 0.5 mM MgCl2 in the case of assays with the carboxyfluorescein or DQ-BSA/AF594 beads. For assays with the BAC/AF594 beads, assay buffer consisted of PBS (pH 7.2), supplemented with 5% FBS, 5 mM dextrose, 1 mM calcium acetate, 1.35 mM K2SO4, and 0.5 mM MgSO4 [9]. Sensor beads at approximately 2 to 5 beads/macrophage in appropriate assay buffer were finally added, with data acquisition on a Biotek Synergy H1 microplate reader with bottom read signal detection started within 2 to 3 minutes of bead addition. Excitation/emission wavelengths were 450 nm/520 nm and 490 nm/520 nm for carboxyfluorescein, 490 nm/520 nm for DQ-BSA, 365 nm/505 nm for BAC, and 590 nm/617 nm for AF594. Each experiment was run with a total of 3 to 5 replicate wells/condition, with temperature maintained at 37°C throughout the assay. Wells were read every 2 minutes for 2 hours for the carboxyfluorescein bead assays, every 2 minoutes for 4 hours for the DQ-BSA/AF594 bead assays, and every 1 minute for 2 hours for the BAC/AF594 bead assays. Analyses of the results were performed as previously described.
structure (smiles),measurement,setting,value
"CCSc1ncc(CN2CCN(c3nc4ccccc4o3)CC2)cn1 [C6, 2-(4-((2-(ethylthio)pyrimidin-5-yl)methyl)piperazin-1-yl)benzo[d]oxazole]",Effect on macrophage phagosomal proteolytic activity,"10 μM, uninfected BMDMs",did not affect
same,"DQ-BSA/AF594, single replicates (Rep 1-4)",Time 0 minutes,0.14 and 0.1347 and 0.1424 and 0.1346
same,"DQ-BSA/AF594, single replicates (Rep 1-4)",Time 2 minutes,0.135 and 0.1275 and 0.1349 and 0.128
same,"DQ-BSA/AF594, single replicates (Rep 1-4)",Time 4 minutes,0.1412 and 0.1359 and 0.1424 and 0.1318
same,"DQ-BSA/AF594, Average",time 0 minutes,0.1379
same,"DQ-BSA/AF594, Average",time 2 minutes,0.1314
same,"DQ-BSA/AF594, Average",time 4 minutes,0.1378
same,"DQ-BSA/AF594, single replicates (Rep 1-4)",time 6 minutes,0.1434 and 0.1398 and 0.1395 and 0.1344
same,"DQ-BSA/AF594, Average",time 6 minutes,0.1393
same,"DQ-BSA/AF594, single replicates (Rep 1-4)",time 8 minutes,0.1391 and 0.1428 and 0.1447 and 0.1317
same,"DQ-BSA/AF594, Average",time 8 minutes,0.1396
same,"DQ-BSA/AF594, single replicates (Rep 1-4)",time 10 minutes,0.146 and 0.145 and 0.1422 and 0.1332
same,"DQ-BSA/AF594, Average",time 10 minutes,0.1416
same,"DQ-BSA/AF594, single replicates (Rep 1-4)",time 12 minutes,0.1443 and 0.1415 and 0.1428 and 0.1313
same,"DQ-BSA/AF594, Average",time 12 minutes,0.14
same,"DQ-BSA/AF594, single replicates (Rep 1-4)",time 14 minutes,0.1461 and 0.1457 and 0.1422 and 0.1412
same,"DQ-BSA/AF594, Average",time 14 minutes,0.1438
same,"DQ-BSA/AF594, single replicates (Rep 1-4)",time 16 minutes,0.1457 and 0.1504 and 0.1476 and 0.1404
same,"DQ-BSA/AF594, Average",time 16 minutes,0.146
same,"DQ-BSA/AF594, single replicates (Rep 1-4)",time 18 minutes,0.152 and 0.1539 and 0.1536 and 0.1434
same,"DQ-BSA/AF594, Average",time 18 minutes,0.1507
same,"DQ-BSA/AF594, single replicates (Rep 1-4)",time 20 minutes,0.1544 and 0.1557 and 0.1584 and 0.1468
same,"DQ-BSA/AF594, Average",time 20 minutes,0.1538
same,"DQ-BSA/AF594, single replicates (Rep 1-4)",time 22 minutes,0.1647 and 0.1693 and 0.1637 and 0.1551
same,"DQ-BSA/AF594, Average",time 22 minutes,0.1632
same,"DQ-BSA/AF594, single replicates (Rep 1-4)",time 24 minutes,0.178 and 0.18 and 0.1857 and 0.1719
same,"DQ-BSA/AF594, Average",time 24 minutes,0.1789
same,"DQ-BSA/AF594, single replicates (Rep 1-4)",time 26 minutes,0.2064 and 0.2113 and 0.205 and 0.1944
same,"DQ-BSA/AF594, Average",time 26 minutes,0.2043
same,"DQ-BSA/AF594, single replicates (Rep 1-4)",time 28 minutes,0.2506 and 0.2446 and 0.2477 and 0.2339
same,"DQ-BSA/AF594, Average",time 28 minutes,0.2442
same,"DQ-BSA/AF594, single replicates (Rep 1-4)",time 30 minutes,0.3139 and 0.29 and 0.311 and 0.2857
same,"DQ-BSA/AF594, Average",time 30 minutes,0.3002
